Numbers after ± are expanded uncertainties.
Tests used:
[1] = for surface tension liquid-gas: digital tensiometer; for mass density: 101.33 kPa, Liquid, Vibrating tube method
[2] = xn = mol fraction of the nth substance listed; conditions: 298.15 K; for surface tension liquid-gas: digital tensiometer; for mass density: 101 kPa, Liquid, Vibrating tube method

CCCC[n+]1ccccc1.O=[N+]([O-])[O-] [1-butylpyridinium nitrate]
[1]
Conditions | mass density [kg/m3] | surface tension liquid-gas [mN/m]
293.15 K | 1192.7 ± 0.4 | 52.32 ± 0.4
298.15 K | 1188.5 ± 0.4 | 51.53 ± 0.4
303.15 K | 1185.4 ± 0.4 | 51.21 ± 0.39
308.15 K | 1181.2 ± 0.4 | 50.97 ± 0.39
313.15 K | 1176.5 ± 0.4 | 50.53 ± 0.39
318.15 K | 1173.5 ± 0.4 | 49.99 ± 0.39
323.15 K | 1169.2 ± 0.4 | 49.53 ± 0.39
328.15 K | 1165.6 ± 0.4 | 49.3 ± 0.4
333.15 K | 1163.2 ± 0.4 | 48.96 ± 0.39
338.15 K | 1159.4 ± 0.4 | 48.64 ± 0.39

O [water] + CCCC[n+]1ccccc1.O=[N+]([O-])[O-]
[2], x2 = 0
Conditions | mass density [kg/m3] | surface tension liquid-gas [mN/m]
– | 1000 ± 0.1 | 72.03 ± 0.31

CCCC[n+]1ccccc1.O=[N+]([O-])[O-] [1-butylpyridinium nitrate] + O
[2]
Conditions | mass density [kg/m3] | surface tension liquid-gas [mN/m]
x1 = 0.0097 | 1016.3 ± 1.6 | 43.71 ± 2.2
x1 = 0.015 | 1024.4 ± 1.3 | 40.11 ± 0.36
x1 = 0.0359 | 1051.1 ± 1.2 | 37.59 ± 0.31
x1 = 0.0498 | 1067 ± 1.1 | 37.5 ± 0.3
x1 = 0.0593 | 1076.1 ± 0.8 | 37.6 ± 0.3
x1 = 0.0816 | 1092.6 ± 0.7 | 38.02 ± 0.31
x1 = 0.1136 | 1113.6 ± 0.4 | 40.03 ± 0.31
x1 = 0.2067 | 1144.7 ± 0.3 | 41.69 ± 0.31
x1 = 0.3247 | 1165.5 ± 0.2 | 44.01 ± 0.32
x1 = 0.447 | 1176.9 ± 0.2 | 46.05 ± 0.33
x1 = 0.633 | 1182.2 ± 0.3 | 48.01 ± 0.34
x1 = 0.7604 | 1185.3 ± 0.3 | 49.25 ± 0.36
x1 = 0.8226 | 1186.6 ± 0.3 | 49.56 ± 0.37
x1 = 0.9023 | 1188 ± 0.4 | 50.78 ± 0.38
x1 = 1 | 1188.5 ± 0.4 | 51.53 ± 0.4

From the NIST ThermoML archive (doi:10.1016/j.jct.2011.09.003)
